# In ChEMBL document CHEMBL2157869, “N'-substituted-2'-O,3'-N-carbonimidoyl bridged macrolides: novel anti-inflammatory macrolides without antimicrobial activity” (J Med Chem, 2012):
# Calls of active or inactive are those of the source. The calls are words filed in the database; no cut-off is given here.
# Key:
# Streptococcus pneumoniae = assay: Antibacterial activity against Streptococcus pneumoniae ATCC 49619 by CLSI broth microdilution method; assay type: functional
# [1] = Antiinflammatory activity in mouse splenocytes assessed as inhibition of LPS-induced IL-6 production at 50 uM preincubated for 2 hrs prior to LPS challenge by sandwich ELISA; assay type: functional; settings: Splenocyte
# [2] = Antiinflammatory activity in mouse splenocytes assessed as inhibition of LPS-induced IL-6 production in mouse splenocytes at 25 uM preincubated for 2 hrs prior to LPS challenge by sandwich ELISA; assay type: functional; settings: Splenocyte
# [3] = Cytotoxicity against human THP1 cells assessed as cell viability at 50 uM after 24 hrs by MTT assay; assay type: cell-based, THP-1; settings: read-out: Activity
# [4] = Antiinflammatory activity in mouse splenocytes assessed as inhibition of LPS-induced IL-6 production at 12 uM preincubated for 2 hrs prior to LPS challenge by sandwich ELISA; assay type: functional; settings: Splenocyte
# Streptococcus pyogenes = assay: Antibacterial activity against Streptococcus pyogenes ATCC 700294 by CLSI broth microdilution method; assay type: functional
# Moraxella catarrhalis = assay: Antibacterial activity against Moraxella catarrhalis ATCC 23246 by CLSI broth microdilution method; assay type: functional
# Cytochrome P450 3A4 [5] = molecular target: T1, Cytochrome P450 3A4 (Homo sapiens, UniProt P08684)
# T1 sequence (P08684 whole entry): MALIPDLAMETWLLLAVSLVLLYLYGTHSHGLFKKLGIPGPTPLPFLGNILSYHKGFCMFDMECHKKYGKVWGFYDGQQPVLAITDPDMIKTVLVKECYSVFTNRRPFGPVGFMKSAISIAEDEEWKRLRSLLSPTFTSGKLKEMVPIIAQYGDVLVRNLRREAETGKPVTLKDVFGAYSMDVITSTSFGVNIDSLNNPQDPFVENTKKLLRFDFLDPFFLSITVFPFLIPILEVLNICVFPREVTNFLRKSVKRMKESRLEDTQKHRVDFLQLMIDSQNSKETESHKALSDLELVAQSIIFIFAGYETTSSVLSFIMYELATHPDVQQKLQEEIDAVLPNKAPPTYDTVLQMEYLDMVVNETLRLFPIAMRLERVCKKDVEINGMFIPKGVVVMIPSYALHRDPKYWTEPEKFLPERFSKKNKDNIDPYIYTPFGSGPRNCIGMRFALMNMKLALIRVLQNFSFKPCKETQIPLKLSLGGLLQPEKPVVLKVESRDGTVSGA
# Description: Inhibition of human recombinant CYP3A4 using DEF as substrate preincubated for 5 to 10 mins before substrate addition
# Cytochrome P450 3A4 [6] = molecular target: T1, Cytochrome P450 3A4; remark: listed apart in the source
# Description: Inhibition of human recombinant CYP3A4 using 7-BQ as substrate preincubated for 5 to 10 mins before substrate addition
# Haemophilus influenzae = assay: Antibacterial activity against Haemophilus influenzae ATCC 49247 by CLSI broth microdilution method; assay type: functional
# Staphylococcus aureus = assay: Antibacterial activity against Staphylococcus aureus ATCC 13709 by CLSI broth microdilution method; assay type: functional
# [7] = molecular target: Transcription factor Jun (Mus musculus) (UniProt P05627); assay: Inhibition of AP1-mediated mediated IL-1beta production in LPS-induced mouse pulmonary neutrophila model
# Chain of Transcription factor Jun (Mus musculus) (P05627 whole entry): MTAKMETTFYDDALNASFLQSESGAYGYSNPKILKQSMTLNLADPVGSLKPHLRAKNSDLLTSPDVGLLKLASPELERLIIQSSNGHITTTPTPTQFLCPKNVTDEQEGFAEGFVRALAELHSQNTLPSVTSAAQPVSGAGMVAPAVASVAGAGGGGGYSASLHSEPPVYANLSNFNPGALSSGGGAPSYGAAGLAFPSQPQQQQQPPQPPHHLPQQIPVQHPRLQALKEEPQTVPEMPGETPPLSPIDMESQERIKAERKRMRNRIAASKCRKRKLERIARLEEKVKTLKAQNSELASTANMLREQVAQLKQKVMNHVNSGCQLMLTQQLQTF
# Mus musculus [8] = assay: Antiinflammatory activity in BALB/cJ mouse assessed as decrease in LPS-induced total cell number in bronchoalveolar lavage fluid at 200 mg/kg, ip administered 2 hrs prior to LPS challenge measured after 24 hrs post LPS challenge; assay type: functional, organism-based; design: dose 200 mg/kg; settings: Lung
# [9] = Cmax in lung cancer patient epithelial lining fluid at 2 gram, po qd; assay type: ADME, organism-based; design: route oral; settings: human
# [10] = Cmax in cystic fibrosis patient plasma at 500 mg; assay type: ADME, organism-based; design: dose 500 mg; settings: human
# Mus musculus [11] = assay: Antiinflammatory activity in BALB/cJ mouse assessed as decrease in LPS-induced neutrophil number in bronchoalveolar lavage fluid at 200 mg/kg, ip administered 2 hrs prior to LPS challenge measured after 24 hrs post LPS challenge; assay type: functional, organism-based; design: dose 200 mg/kg; settings: Lung
# [12] = Cmax in lung cancer patient serum at 2 gram, po qd; assay type: ADME, organism-based; design: route oral; settings: human
# [13] = Cmax in cystic fibrosis patient blood at 500 mg; assay type: ADME, organism-based; design: dose 500 mg; settings: human, whole blood
smiles,measurement,setting,value
CC[C@H]1OC(=O)[C@H](C)[C@@H](O[C@H]2C[C@@](C)(OC)[C@@H](O)[C@H](C)O2)[C@H](C)[C@@H](O[C@@H]2O[C@H](C)C[C@H]3[C@H]2O/C(=N/Cc2ccccc2)N3C)[C@](C)(OC)C[C@@H](C)NC(=O)[C@H](C)[C@@H](O)[C@]1(C)O,MIC,Streptococcus pneumoniae,1 mg/L
CC[C@H]1OC(=O)[C@H](C)[C@@H](O[C@H]2C[C@@](C)(OC)[C@@H](O)[C@H](C)O2)[C@H](C)[C@@H](O[C@@H]2O[C@H](C)C[C@H]3[C@H]2O/C(=N\C(C)(C)C)N3C)[C@](C)(OC)C[C@@H](C)C(=O)N[C@H](C)[C@@H](O)[C@]1(C)O,inhibition at 50 µM,[1],86%
same,inhibition at 25 µM,[2],62%
same,"viability at 24 h, 50 µM",[3],0%
same,inhibition at 12 µM,[4],52%
same,MIC,Streptococcus pyogenes,> 64 mg/L
CC[C@H]1OC(=O)[C@H](C)[C@@H](O[C@H]2C[C@@](C)(OC)[C@@H](O)[C@H](C)O2)[C@H](C)[C@@H](O[C@@H]2O[C@H](C)C[C@H]3[C@H]2O/C(=N\C(C)C)N3C)[C@](C)(O)C[C@@H](C)C(=O)[C@H](C)[C@@H](O)[C@]1(C)O,inhibition at 50 µM,[1],94%
same,inhibition at 25 µM,[2],81%
same,"viability at 24 h, 50 µM",[3],0%
same,inhibition at 12 µM,[4],61%
same,MIC,Streptococcus pyogenes,> 64 mg/L
CC[C@H]1OC(=O)[C@H](C)[C@@H](O[C@H]2C[C@@](C)(OC)[C@@H](O)[C@H](C)O2)[C@H](C)[C@@H](O[C@@H]2O[C@H](C)C[C@H]3[C@H]2O/C(=N/C(C)C)N3C)[C@@](C)(OC)C/C(C)=C2/O[C@@]1(C)C=C2C,MIC,Moraxella catarrhalis,8 mg/L
CC[C@H]1OC(=O)[C@H](C)[C@@H](O[C@H]2C[C@@](C)(OC)[C@@H](O)[C@H](C)O2)[C@H](C)[C@@H](O[C@@H]2O[C@H](C)C[C@H]3[C@H]2O/C(=N\C(C)C)N3C)[C@](C)(OC)C[C@@H](C)NC(=O)[C@H](C)[C@@H](O)[C@]1(C)O,inhibition at 50 µM,[1],67%
same,IC50,Cytochrome P450 3A4 [5],1 µM
same,inhibition at 25 µM,[2],55%
same,"viability at 24 h, 50 µM",[3],0%
same,IC50,Cytochrome P450 3A4 [6],> 10 µM
same,inhibition at 12 µM,[4],45%
same,MIC,Streptococcus pyogenes,> 64 mg/L
CC/N=C1/O[C@H]2[C@H](O[C@@H]3[C@@H](C)[C@H](O[C@H]4C[C@@](C)(OC)[C@@H](O)[C@H](C)O4)[C@@H](C)C(=O)O[C@H](CC)[C@]4(C)C=C(C)/C(=C(/C)C[C@]3(C)OC)O4)O[C@H](C)C[C@@H]2N1C,MIC,Moraxella catarrhalis,8 mg/L
CC[C@H]1OC(=O)[C@H](C)[C@@H](O[C@H]2C[C@@](C)(OC)[C@@H](O)[C@H](C)O2)[C@H](C)[C@@H](O[C@@H]2O[C@H](C)C[C@H]3[C@H]2O/C(=N\CCCSC)N3C)[C@](C)(OC)C[C@@H](C)C(=O)N[C@H](C)[C@@H](O)[C@]1(C)O,inhibition at 50 µM,[1],67%
same,IC50,Cytochrome P450 3A4 [5],1.33 µM
same,inhibition at 25 µM,[2],48%
same,"viability at 24 h, 50 µM",[3],0%
same,IC50,Cytochrome P450 3A4 [6],> 10 µM
same,inhibition at 12 µM,[4],36%
same,MIC,Streptococcus pyogenes,> 64 mg/L
CC[C@H]1OC(=O)[C@H](C)[C@@H](O[C@H]2C[C@@](C)(OC)[C@@H](O)[C@H](C)O2)[C@H](C)[C@@H](O[C@@H]2O[C@H](C)C[C@H]3[C@H]2O/C(=N/c2ccc(OC)cc2)N3C)[C@](C)(OC)C[C@@H](C)C(=O)N[C@H](C)[C@@H](O)[C@]1(C)O,inhibition at 50 µM,[1],71%
same,IC50,Cytochrome P450 3A4 [5],0.7 µM
same,inhibition at 25 µM,[2],44%
same,"viability at 24 h, 50 µM",[3],6%
same,IC50,Cytochrome P450 3A4 [6],4.7 µM
same,inhibition at 12 µM,[4],39%
same,MIC,Streptococcus pyogenes,> 64 mg/L
CC/N=C1\O[C@H]2[C@H](O[C@@H]3[C@@H](C)[C@H](O[C@H]4C[C@@](C)(OC)[C@@H](O)[C@H](C)O4)[C@@H](C)C(=O)O[C@H](CC)[C@@](C)(O)[C@H](O)[C@@H](C)C(=O)[C@H](C)C[C@@]3(C)O)O[C@H](C)C[C@@H]2N1C,inhibition at 50 µM,[1],86%
same,IC50,Cytochrome P450 3A4 [5],0.5 µM
same,inhibition at 25 µM,[2],80%
same,"viability at 24 h, 50 µM",[3],0%
same,IC50,Cytochrome P450 3A4 [6],5.7 µM
same,inhibition at 12 µM,[4],70%
same,MIC,Streptococcus pyogenes,> 64 mg/L
CC[C@H]1OC(=O)[C@H](C)[C@@H](O[C@H]2C[C@@](C)(OC)[C@@H](O)[C@H](C)O2)[C@H](C)[C@@H](O[C@@H]2O[C@H](C)C[C@H]3[C@H]2O/C(=N/Cc2ccccc2)N3C)[C@](C)(O)C[C@@H](C)CN(C)[C@H](C)[C@@H](O)[C@]1(C)O,MIC,Streptococcus pneumoniae,1 mg/L
CC/N=C1/O[C@H]2[C@H](O[C@@H]3[C@@H](C)[C@H](O[C@H]4C[C@@](C)(OC)[C@@H](O)[C@H](C)O4)[C@@H](C)C(=O)O[C@H](CC)[C@@]4(C)OC5(O[C@@]3(C)C[C@H]5C)[C@H](C)[C@@H]4C)O[C@H](C)C[C@@H]2N1C,Activity,Haemophilus influenzae,Active
same,Activity,Moraxella catarrhalis,Active
same,Activity,Staphylococcus aureus,Active
same,Activity,Streptococcus pneumoniae,Active
same,Activity,Streptococcus pyogenes,Active
CC[C@H]1OC(=O)[C@H](C)[C@@H](O[C@H]2C[C@@](C)(OC)[C@@H](O)[C@H](C)O2)[C@H](C)[C@@H](O[C@@H]2O[C@H](C)C[C@H](N(C)C)[C@H]2O)[C@](C)(O)C[C@@H](C)CN(C)[C@H](C)[C@@H](O)[C@]1(C)O [AZITHROMYCIN],inhibition at 50 µM,[1],84%
same,inhibition,[7],Active
same,Activity,Mus musculus [8],Active
same,MIC,Haemophilus influenzae,2 mg/L
same,inhibition at 25 µM,[2],74%
same,"viability at 24 h, 50 µM",[3],0%
same,Cmax,[9],3.2 µg/mL
same,MIC,Moraxella catarrhalis,< 0.125 mg/L
same,Cmax,[10],0.67 µg/mL
same,MIC,Staphylococcus aureus,0.5 mg/L
same,MIC,Streptococcus pneumoniae,< 0.125 mg/L
same,Activity,Mus musculus [11],Active
same,inhibition at 12 µM,[4],61%
same,Cmax,[12],0.94 µg/mL
same,Cmax,[13],2.01 µg/mL
same,MIC,Streptococcus pyogenes,< 0.125 mg/L
CC[C@H]1OC(=O)[C@H](C)[C@@H](O[C@H]2C[C@@](C)(OC)[C@@H](O)[C@H](C)O2)[C@H](C)[C@@H](O[C@@H]2O[C@H](C)C[C@H]3[C@H]2O/C(=N/Cc2ccccc2)N3C)[C@@](C)(OC)C/C(C)=C2/O[C@@]1(C)C=C2C,MIC,Staphylococcus aureus,8 mg/L
CC/N=C1\O[C@H]2[C@H](O[C@@H]3[C@@H](C)[C@H](O[C@H]4C[C@@](C)(OC)[C@@H](O)[C@H](C)O4)[C@@H](C)C(=O)O[C@H](CC)[C@@](C)(O)[C@H](O)[C@@H](C)N(C)C[C@H](C)C[C@@]3(C)O)O[C@H](C)C[C@@H]2N1C,inhibition at 50 µM,[1],99%
same,Activity,Mus musculus [8],Active
same,IC50,Cytochrome P450 3A4 [5],7.9 µM
same,inhibition at 25 µM,[2],96%
same,"viability at 24 h, 50 µM",[3],0%
same,IC50,Cytochrome P450 3A4 [6],> 10 µM
same,Activity,Mus musculus [11],Active
same,inhibition at 12 µM,[4],86%
same,MIC,Streptococcus pyogenes,> 64 mg/L
CC[C@H]1OC(=O)[C@H](C)[C@@H](O[C@H]2C[C@@](C)(OC)[C@@H](O)[C@H](C)O2)[C@H](C)[C@@H](O[C@@H]2O[C@H](C)C[C@H]3[C@H]2O/C(=N/c2cccc4ccccc24)N3C)[C@](C)(O)C[C@@H](C)CN(C)[C@H](C)[C@@H](O)[C@]1(C)O,MIC,Streptococcus pneumoniae,1 mg/L
CC[C@H]1OC(=O)[C@H](C)[C@@H](O[C@H]2C[C@@](C)(OC)[C@@H](O)[C@H](C)O2)[C@H](C)[C@@H](O[C@@H]2O[C@H](C)C[C@H]3[C@H]2O/C(=N/C(C)C)N3C)[C@](C)(OC)C[C@@H](C)N(C)C[C@H](C)[C@@H](O)[C@]1(C)O,MIC,Streptococcus pneumoniae,1 mg/L
CC[C@H]1OC(=O)[C@H](C)[C@@H](O[C@H]2C[C@@](C)(OC)[C@@H](O)[C@H](C)O2)[C@H](C)[C@@H](O[C@@H]2O[C@H](C)C[C@H]3[C@H]2O/C(=N\CCCN(C)C)N3C)[C@](C)(OC)C[C@@H](C)C(=O)[C@H](C)[C@@H](O)[C@]1(C)O,inhibition at 50 µM,[1],74%
same,IC50,Cytochrome P450 3A4 [5],0.7 µM
same,inhibition at 25 µM,[2],62%
same,"viability at 24 h, 50 µM",[3],0%
same,IC50,Cytochrome P450 3A4 [6],8 µM
same,inhibition at 12 µM,[4],55%
same,MIC,Streptococcus pyogenes,> 64 mg/L
CC/N=C1\O[C@H]2[C@H](O[C@@H]3[C@@H](C)[C@H](O[C@H]4C[C@@](C)(OC)[C@@H](O)[C@H](C)O4)[C@@H](C)C(=O)O[C@H](CC)[C@@](C)(O)[C@H](O)[C@@H](C)C(=O)[C@H](C)C[C@@]3(C)OC)O[C@H](C)C[C@@H]2N1C,inhibition at 50 µM,[1],73%
same,inhibition at 25 µM,[2],64%
same,"viability at 24 h, 50 µM",[3],0%
same,IC50,Cytochrome P450 3A4 [6],2.9 µM
same,inhibition at 12 µM,[4],55%
same,MIC,Streptococcus pyogenes,> 64 mg/L
